# Columns and labels:
# Format in all cases: biochemical
# recombinant hSSAO = recombinant hSSAO (Homo sapiens (Human), UniProt Q16853); assay: SSAO Activity Assay (MAO-Glo assay kit); conditions: 40 μM substrate, 30 mins pre-incubation
# Protocol: (§1) The biological activities of the compounds of the present application can be assessed with methods and assays known in the art. For example, the potency of the compounds of the present application can be evaluated with an SSAO Activity Assay. Briefly, compounds of the present application can be applied to recombinant hSSAO, hMAO-A, and hMAO-B isoforms and the amine oxidase activity of the enzymes are measured after the addition and subsequent oxidation of the luminogenic substrate (e.g., with the MAO-Glo assay kit from Promega). The IC50 can be calculated, for example, by fitting the dose response curve using a 4-parameter non-linear regression routine.
# (§2) Amine oxidase activity of recombinant hSSAO, hMAO-A, and hMAO-B isoforms are measured using the MAO-Glo assay kit (Promega, V1402). Ten nL test compounds (with DMSO as vehicle, 0.1% v/v for hSSAO, hMAO-A and hMAO-B) were added into assay plates by Echo, and pre-incubated with 5 μL of enzyme for 30 mins at room temperature before the addition of 5 μL of luminogenic substrate. The substrate concentration is 40 μM for human recombinant SSAO, 40 μM for human recombinant MAO-A, and 4 μM for human recombinant MAO-B. The hSSAO and hMAO-A assays were conducted in the MAO-A reaction buffer in the kit, and the MAO-B assay was conducted in the MAO-B reaction buffer. Oxidation of the substrate was conducted for 1 hr, before the addition of detecting reagent according the manufacture's protocol. The IC50 value of the tested compounds was calculated by fitting the dose response curve using a 4-parameter non-linear regression routine.
# recombinant hMAO-A = recombinant hMAO-A (Homo sapiens (Human), UniProt P21397); assay: MAO-A activity assay (MAO-Glo assay kit); conditions: 40 μM substrate, 30 mins pre-incubation
# Protocol: as §1, §2
# recombinant hMAO-B = recombinant hMAO-B (Homo sapiens (Human), UniProt P27338); assay: MAO-B activity assay (MAO-Glo assay kit); conditions: 4 μM substrate, 30 mins pre-incubation
# Protocol: as §1, §2
# Sequence of recombinant hMAO-A (P21397 whole entry): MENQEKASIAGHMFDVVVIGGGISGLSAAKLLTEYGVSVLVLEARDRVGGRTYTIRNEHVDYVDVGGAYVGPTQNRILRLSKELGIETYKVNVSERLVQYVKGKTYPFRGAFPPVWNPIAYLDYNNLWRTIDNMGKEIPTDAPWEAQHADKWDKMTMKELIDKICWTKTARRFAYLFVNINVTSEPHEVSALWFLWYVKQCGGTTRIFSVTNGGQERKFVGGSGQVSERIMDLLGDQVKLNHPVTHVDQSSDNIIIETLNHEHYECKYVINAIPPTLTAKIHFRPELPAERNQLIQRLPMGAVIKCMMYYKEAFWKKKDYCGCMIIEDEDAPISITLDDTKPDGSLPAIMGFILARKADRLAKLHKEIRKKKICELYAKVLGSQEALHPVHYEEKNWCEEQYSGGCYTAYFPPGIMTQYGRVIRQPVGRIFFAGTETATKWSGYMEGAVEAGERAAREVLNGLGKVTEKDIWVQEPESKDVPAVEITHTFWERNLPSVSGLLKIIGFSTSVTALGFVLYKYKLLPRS
# Sequence of recombinant hMAO-B (P27338 whole entry): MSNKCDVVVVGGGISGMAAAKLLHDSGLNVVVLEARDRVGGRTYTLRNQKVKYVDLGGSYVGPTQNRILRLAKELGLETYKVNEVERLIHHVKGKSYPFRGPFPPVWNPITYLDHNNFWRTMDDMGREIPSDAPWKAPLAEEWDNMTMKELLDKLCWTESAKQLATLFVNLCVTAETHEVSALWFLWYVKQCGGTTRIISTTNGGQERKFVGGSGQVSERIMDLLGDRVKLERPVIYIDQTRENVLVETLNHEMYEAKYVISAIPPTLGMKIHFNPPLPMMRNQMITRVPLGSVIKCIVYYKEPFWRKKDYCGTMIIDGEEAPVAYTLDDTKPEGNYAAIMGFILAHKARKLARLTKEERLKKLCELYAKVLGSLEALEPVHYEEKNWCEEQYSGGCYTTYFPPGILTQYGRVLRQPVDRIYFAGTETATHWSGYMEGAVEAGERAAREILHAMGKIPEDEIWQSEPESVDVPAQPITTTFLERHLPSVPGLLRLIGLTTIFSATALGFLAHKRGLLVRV
# Sequence of recombinant hSSAO (Q16853 whole entry, canonical isoform): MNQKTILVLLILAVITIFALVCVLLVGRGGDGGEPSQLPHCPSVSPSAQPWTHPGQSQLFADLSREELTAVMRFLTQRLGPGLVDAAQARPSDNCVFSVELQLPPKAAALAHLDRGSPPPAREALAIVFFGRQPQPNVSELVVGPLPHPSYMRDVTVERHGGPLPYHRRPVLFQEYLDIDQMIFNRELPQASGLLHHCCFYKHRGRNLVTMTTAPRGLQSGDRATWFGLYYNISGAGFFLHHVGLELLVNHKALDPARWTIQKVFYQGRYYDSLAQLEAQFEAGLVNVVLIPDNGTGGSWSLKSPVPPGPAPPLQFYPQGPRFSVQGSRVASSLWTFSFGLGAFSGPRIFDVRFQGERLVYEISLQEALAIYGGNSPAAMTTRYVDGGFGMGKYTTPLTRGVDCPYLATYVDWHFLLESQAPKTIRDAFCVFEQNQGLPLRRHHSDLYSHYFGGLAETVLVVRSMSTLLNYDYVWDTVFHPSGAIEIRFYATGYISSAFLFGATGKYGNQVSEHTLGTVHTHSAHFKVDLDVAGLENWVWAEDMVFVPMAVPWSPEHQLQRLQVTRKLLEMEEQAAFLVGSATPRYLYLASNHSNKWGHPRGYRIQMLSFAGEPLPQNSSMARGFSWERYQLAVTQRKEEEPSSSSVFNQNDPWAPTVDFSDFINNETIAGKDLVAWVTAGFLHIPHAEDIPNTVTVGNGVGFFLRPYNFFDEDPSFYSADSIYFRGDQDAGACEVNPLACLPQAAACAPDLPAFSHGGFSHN
SMILES,IC50 (recombinant hSSAO),IC50 (recombinant hMAO-A),IC50 (recombinant hMAO-B)
"CC1(CS(=O)(=O)c2ccc(OC/C(=C/F)CN)cc2)CCN(C(=O)C2(C(F)(F)F)CC2)CC1 [Compound 55, (E)-(4-(((4-((2-(aminomethyl)-3-fluoroallyl)oxy)phenyl)sulfonyl)methyl)-4-methylpiperidin-1-yl)(1-(trifluoromethyl)cyclopropyl) methanone]",20 to 100 nM,> 30 µM,10 to 30 µM
"CC1(CS(=O)(=O)c2ccc(OC/C(=C/F)CN)cc2)CCN(C(=O)C2(C)CCC2)CC1 [Compound 56, (E)-(4-(((4-((2-(aminomethyl)-3-fluoroallyl)oxy)phenyl)sulfonyl)methyl)-4-methylpiperidin-1-yl)(1-methylcyclobutyl)methanone]",20 to 100 nM,> 30 µM,10 to 30 µM
"NC/C(=C\F)COc1ccc(S(=O)(=O)CC2CCN(C(=O)CC(F)(F)F)CC2)c(F)c1 [Compound 59, (E)-1-(4-(((4-((2-(aminomethyl)-3-fluoroallyl)oxy)-2-fluorophenyl)sulfonyl)methyl)piperidin-1-yl)-3,3,3-trifluoropropan-1-one]",20 to 100 nM,> 30 µM,> 30 µM
"CC1(NC(=O)C23CCC(CS(=O)(=O)c4ccc(OC/C(=C/F)CN)cc4)(CC2)CC3)CC1 [Compound 67, (E)-4-(((4-((2-(aminomethyl)-3-fluoroallyl)oxy)phenyl)sulfonyl)methyl)-N-(1-methylcyclopropyl)bicyclo[2.2.2] octane-1-carboxamide]",< 20 nM,> 30 µM,> 30 µM
"NC/C(=C\F)COc1ccc(S(=O)(=O)CC23CCC(C(=O)NC4CC(F)(F)C4)(CC2)CC3)cc1 [Compound 69, (E)-4-(((4-((2-(aminomethyl)-3-fluoroallyl)oxy)phenyl)sulfonyl)methyl)-N-(3,3-difluorocyclobutyl)bicyclo[2.2.2] octane-1-carboxamide]",< 20 nM,> 30 µM,10 to 30 µM
NC/C(=C\F)COc1ccc(S(=O)(=O)CC23CCC(C(=O)N4CCC4)(CC2)CC3)cc1 [Compound 71],< 20 nM,> 30 µM,10 to 30 µM
NC/C(=C\F)COc1ccc(S(=O)(=O)CC23CCC(C(=O)N4CC(F)(F)C4)(CC2)CC3)cc1 [Compound 72],< 20 nM,> 30 µM,> 30 µM
"CN(C(=O)C12CCC(CS(=O)(=O)c3ccc(OC/C(=C/F)CN)cc3)(CC1)CC2)C1CC1 [Compound 73, (E)-4-(((4-((2-(aminomethyl)-3-fluoroallyl)oxy)phenyl)sulfonyl)methyl)-N-cyclopropyl-N-methylbicyclo[2.2.2]octane-1-carboxamide]",20 to 100 nM,> 30 µM,> 30 µM
"CCN(CC)C(=O)C12CCC(CS(=O)(=O)c3ccc(OC/C(=C/F)CN)cc3)(CC1)CC2 [Compound 74, (E)-4-(((4-((2-(aminomethyl)-3-fluoroallyl)oxy)phenyl)sulfonyl)methyl)-N,N-diethylbicyclo[2.2.2] octane-1-carboxamide]",20 to 100 nM,> 30 µM,> 30 µM
"NC/C(=C\F)COc1ccc(S(=O)(=O)CC23CCC(NS(=O)(=O)C4CC4)(CC2)CC3)cc1 [Compound 81, (E)-N-(4-(((4-((2-(aminomethyl)-3-fluoroallyl)oxy)phenyl)sulfonyl)methyl)bicyclo[2.2.2]octan-1-yl)cyclopropanesulfonamide]",< 20 nM,> 30 µM,> 30 µM
"NC/C(=C\F)COc1ccc(S(=O)(=O)CC23CCC(NC(=O)C4CC4(F)F)(CC2)CC3)cc1 (stereo not drawn) [Compound 84, (E)-N-(4-(((4-((2-(aminomethyl)-3-fluoroallyl)oxy)phenyl)sulfonyl)methyl)bicyclo[2.2.2]octan-1-yl)-2,2-difluorocyclopropane-1-carboxamide]",< 20 nM,> 30 µM,10 to 30 µM
"NC/C(=C\F)COc1ccc(S(=O)(=O)CC23CCC(NC(=O)C4(F)CC4)(CC2)CC3)cc1 [Compound 86, (E)-N-(4-(((4-((2-(aminomethyl)-3-fluoroallyl)oxy)phenyl)sulfonyl)methyl)bicyclo[2.2.2]octan-1-yl)-1-fluorocyclopropane-1-carboxamide]",< 20 nM,> 30 µM,< 10 µM
"CC(C)(C)C(=O)NC12CCC(CS(=O)(=O)c3ccc(OC/C(=C/F)CN)cc3)(CC1)CC2 [Compound 90, (E)-N-(4-(((4-((2-(aminomethyl)-3-fluoroallyl)oxy)phenyl)sulfonyl)methyl)bicyclo[2.2.2]octan-1-yl)pivalamide]",< 20 nM,> 30 µM,10 to 30 µM
"NC/C(=C\F)COc1ccc(S(=O)(=O)CC23CCC(NC(=O)C4CCC4)(CC2)CC3)cc1 [Compound 92, (E)-N-(4-(((4-((2-(aminomethyl)-3-fluoroallyl)oxy)phenyl)sulfonyl)methyl)bicyclo[2.2.2]octan-1-yl)cyclobutanecarboxamide]",< 20 nM,> 30 µM,10 to 30 µM
"NC/C(=C\F)COc1ccc(S(=O)(=O)CCN2CCCCC2=O)cc1 [Compound 107, (E)-1-(2-((4-((2-(aminomethyl)-3-fluoroallyl)oxy)phenyl)sulfonyl)ethyl) piperidin-2-one]",< 20 nM,> 30 µM,< 10 µM
"CC(CN1C(=O)CCC1(C)C)CS(=O)(=O)c1ccc(OC/C(=C/F)CN)cc1 (stereo not drawn) [Compound 111, (E)-1-(3-((4-((2-(aminomethyl)-3-fluoroallyl)oxy)phenyl)sulfonyl)-2-methylpropyl)-5,5-dimethylpyrrolidin-2-one]",20 to 100 nM,> 30 µM,10 to 30 µM

# The next lines start with the values.
IC50 (recombinant hSSAO),IC50 (recombinant hMAO-A),IC50 (recombinant hMAO-B),SMILES
20 to 100 nM,> 30 µM,> 30 µM,"CC1(CS(=O)(=O)c2ccc(OC/C(=C/F)CN)cc2)CCN(C(=O)C(C)(C)C)CC1 [Compound 54, (E)-1-(4-(((4-((2-(aminomethyl)-3-fluoroallyl)oxy)phenyl)sulfonyl)methyl)-4-methylpiperidin-1-yl)-2,2-dimethylpropan-1-one]"
100 to 500 nM,> 30 µM,> 30 µM,NC/C(=C\F)COc1ccc(S(=O)(=O)CC2CCN(C(=O)C3CCCC3)CC2)c(F)c1 [Compound 58]
< 20 nM,> 30 µM,10 to 30 µM,"NC/C(=C\F)COc1ccc(S(=O)(=O)CC23CCC(C(=O)N4CCCC4)(CC2)CC3)cc1 [Compound 61, (E)-(4-(((4-((2-(aminomethyl)-3-fluoroallyl)oxy)phenyl)sulfonyl)methyl)bicyclo[2.2.2]octan-1-yl)(pyrrolidin-1-yl)methanone]"
< 20 nM,> 30 µM,10 to 30 µM,"NC/C(=C\F)COc1ccc(S(=O)(=O)CC23CCC(C(=O)NCC4CC4)(CC2)CC3)cc1 [Compound 66, (E)-4-(((4-((2-(aminomethyl)-3-fluoroallyl)oxy)phenyl)sulfonyl)methyl)-N-(cyclopropylmethyl)bicyclo [2.2.2]octane-1-carboxamide]"
< 20 nM,> 30 µM,> 30 µM,"CC(C)OCCNC(=O)C12CCC(CS(=O)(=O)c3ccc(OC/C(=C/F)CN)cc3)(CC1)CC2 [Compound 68, (E)-4-(((4-((2-(aminomethyl)-3-fluoroallyl)oxy)phenyl)sulfonyl)methyl)-N-(2-isopropoxyethyl)bicyclo[2.2.2] octane-1-carboxamide]"
< 20 nM,> 30 µM,10 to 30 µM,"NC/C(=C\F)COc1ccc(S(=O)(=O)CC23CCC(C(=O)NC4CC4)(CC2)CC3)cc1 [Compound 75, (E)-4-(((4-((2-(aminomethyl)-3-fluoroallyl)oxy)phenyl)sulfonyl)methyl)-N-cyclopropylbicyclo[2.2.2]octane-1-carboxamide]"
< 20 nM,> 30 µM,> 30 µM,"CC(C)(C)C(=O)NC12CC(CS(=O)(=O)c3ccc(OC/C(=C/F)CN)cc3)(C1)C2 [Compound 77, (E)-N-(3-(((4-((2-(aminomethyl)-3-fluoroallyl)oxy)phenyl)sulfonyl)methyl)bicyclo[1.1.1]pentan-1-yl)pivalamide]"
< 20 nM,> 30 µM,10 to 30 µM,"CC(C)C(=O)NC12CCC(CS(=O)(=O)c3ccc(OC/C(=C/F)CN)cc3)(CC1)CC2 [Compound 80, (E)-N-(4-(((4-((2-(aminomethyl)-3-fluoroallyl)oxy)phenyl)sulfonyl)methyl)bicyclo[2.2.2]octan-1-yl)isobutyramide]"
20 to 100 nM,> 30 µM,10 to 30 µM,"NC/C(=C\F)COc1ccc(S(=O)(=O)CC23CCC(NC(=O)C4(C(F)(F)F)CC4)(CC2)CC3)cc1 [Compound 85, (E)-N-(4-(((4-((2-(aminomethyl)-3-fluoroallyl)oxy)phenyl)sulfonyl)methyl)bicyclo[2.2.2]octan-1-yl)-1-(trifluoromethyl)cyclopropane-1-carboxamide]"

# Reference: US11472769B2, “SSAO inhibitors and use thereof” (Eccogene (Shanghai) Co., Ltd., priority 2019, dated 2022)
